Measured values: patent publication US10570164B2, “Steviol glycosides, their compositions and their purification” (The Coca-Cola Company, priority 2013, dated 2020)

Tests used:
[1] = system: panelists; experiment: Taste evaluation: overall sweetness of 30 ppm solutions against sucrose controls (sweetness recognition threshold); type: in vivo, human; details: for sweetness recognition threshold: lowest concentration perceivable by the human sense of taste; for sucrose equivalence / isosweetness of a solution of the compound alone: solution containing 30 ppm compound, no additional sweetener, isosweet sucrose solution
Method: (§1) Solutions were made by dissolving all ingredients in treated water. For citric acid buffer, citric acid and potassium citrate were added in a sufficient amount to bring the pH to 3.2. Finished products were filled in 300 ml glass bottles and stored in the refrigerator and tasted the following day.
(§2) Beverages in citric acid/sodium citrate buffer were kept at 4° C. in the refrigerator and tasted the following day. Four panelists evaluated the beverages. Bottles were removed from the refrigerator and about 20 ml of beverage poured in 2 oz. plastic cups. Panelists were instructed not to swallow the samples and additional cups were provided to spit the sample in. Mineral water was given for palate rinsing before tasting and between tasting different samples.
To evaluate 30 ppm of rebaudioside N and rebaudioside O for overall sweetness, panelists were provided solutions of 1%, 1.5%, and 2% sucrose in citric acid/sodium citrate buffer as controls. All panelists determined the overall sweetness of 30 ppm of rebaudioside N and rebaudioside O solutions in citric acid/sodium citrate buffer to fall between 1% and 1.5% sucrose controls. Accordingly, 30 ppm was determined to be the sweetness recognition threshold concentration for both compounds.

[2] = system: panelists; experiment: Taste evaluation: sweetness enhancement of 30 ppm added to 8% sucrose beverage against sucrose controls; type: in vivo, human; details: for sweetness enhancement: 30 ppm compound added to beverage containing 8% sucrose, citric acid/sodium citrate buffer; for increase in isosweetness provided by the compound: 30 ppm compound in beverage with 8% (w/v) sucrose; for isosweetness of beverage containing sucrose and compound: beverage with 8% (w/v) sucrose and 30 ppm compound, isosweet sucrose solution
Method: as §1, §2
Sweetness enhancement of rebaudioside N and rebaudioside O was evaluated by adding 30 ppm to a solution of 8% sucrose in citric acid/sodium citrate buffer (pH 3.2). The new solutions were then evaluated for their overall sweetness against three controls of 8%, 9%, and 10% sucrose in citric acid/sodium citrate buffer solutions (pH 3.2).

SMILES | sweetness recognition threshold [1] | sucrose equivalence / isosweetness of a solution of the compound alone [1] | sweetness enhancement [2] | increase in isosweetness provided by the compound [2] | isosweetness of beverage containing sucrose and compound [2] | overall sweetness of beverage against sucrose controls ([2]; 30 ppm compound and 8% sucrose in citric acid/sodium citrate buffer (pH 3.2), 8%, 9%, 10% sucrose controls) [%]
C=C1C[C@@]23CCC4[C@](C)(C(=O)OC5OC(CO)C(O)C(OC6OC(CO)C(O)C(O)C6O)C5OC5OC(C)C(O)C(O)C5O)CCC[C@@]4(C)[C@@H]2CC[C@]1(OC1OC(CO)C(O)C(OC2OC(CO)C(O)C(O)C2O)C1OC1OC(CO)C(O)C(O)C1O)C3 (stereo partly drawn) [Compound (2f), 13-[(2-O-β-D-glucopyranosyl-3-O-β-D-glucopyranosyl-β-D-glucopyranosyl)oxy]ent-kaur-16-en-19-oic acid-[(2-O-α-D-rhamnopyranosyl-3-O-β-D-glucopyranosyl-β-D-glucopyranosyl)ester]] | about 30 ppm | 1.0-1.5 % (w/v) | 2.5-3.0% | 2.5-3.0 % (w/v) | 10.5-11.0 % (w/v) | –
C=C1C[C@@]23CCC4[C@](C)(C(=O)OC5OC(CO)C(O)C(OC6OC(CO)C(O)C(O)C6O)C5OC5OC(C)C(O)C(OC6OC(CO)C(O)C(O)C6O)C5O)CCC[C@@]4(C)[C@@H]2CC[C@]1(OC1OC(CO)C(O)C(OC2OC(CO)C(O)C(O)C2O)C1OC1OC(CO)C(O)C(O)C1O)C3 (stereo partly drawn) [Compound (2g), 13-[(2-O-β-D-glucopyranosyl-3-O-β-D-glucopyranosyl-β-D-glucopyranosyl)oxy]ent-kaur-16-en-19-oic acid-[(2-O-(3-O-β-D-glucopyranosyl-α-D-rhamnopyranosyl)-3-O-β-D-glucopyranosyl-β-D-glucopyranosyl)ester]] | about 30 ppm | 1.0-1.5 % (w/v) | about 2.0% | 2.0 % (w/v) | 10.0 % (w/v) | ~10
